Data reported in ChEMBL document CHEMBL4507320, “Data for DCP probe NVS-MALT1” (2021).

Assays:
[1] = biological target: Receptor-type tyrosine-protein kinase FLT3 (Homo sapiens, UniProt P36888); conditions: Compound concentration 1000.0 nM
[2] = biological target: ALK tyrosine kinase receptor (Homo sapiens) (UniProt Q9UM73); conditions: Compound concentration 1000.0 nM
[3] = biological target: MAP kinase-activated protein kinase 2 (Homo sapiens) (UniProt P49137); conditions: Compound concentration 1000.0 nM
[4] = biological target: Mitogen-activated protein kinase 7 (Homo sapiens) (UniProt Q13164); conditions: Compound concentration 1000.0 nM
[5] = biological target: Tyrosine-protein kinase TXK (Homo sapiens) (UniProt P42681); conditions: Compound concentration 1000.0 nM
[6] = biological target: SRSF protein kinase 2 (Homo sapiens) (UniProt P78362); conditions: Compound concentration 1000.0 nM
[7] = tested on: Epidermal growth factor receptor (Homo sapiens), P00533 [L858R]; conditions: Compound concentration 1000.0 nM
[8] = biological target: Myosin light chain kinase, smooth muscle (Homo sapiens) (UniProt Q15746); conditions: Compound concentration 1000.0 nM
[9] = biological target: Serine/threonine-protein kinase DCLK1 (Homo sapiens) (UniProt O15075); conditions: Compound concentration 1000.0 nM
[10] = biological target: Calcium/calmodulin-dependent protein kinase type IV (Homo sapiens) (UniProt Q16566); conditions: Compound concentration 1000.0 nM
[11] = tested on: Tyrosine-protein kinase ABL1 (Homo sapiens), P00519 [H396P]; conditions: Compound concentration 1000.0 nM
[12] = biological target: Vascular endothelial growth factor receptor 2 (Homo sapiens) (UniProt P35968); conditions: Compound concentration 1000.0 nM
[13] = biological target: Mitogen-activated protein kinase 9 (Homo sapiens) (UniProt P45984); conditions: Compound concentration 1000.0 nM
[14] = biological target: Homeodomain-interacting protein kinase 3 (Homo sapiens) (UniProt Q9H422); conditions: Compound concentration 1000.0 nM
[15] = biological target: Non-receptor tyrosine-protein kinase TNK1 (Homo sapiens) (UniProt Q13470); conditions: Compound concentration 1000.0 nM
[16] = biological target: Cyclin-dependent kinase 5 (Homo sapiens) (UniProt Q00535); conditions: Compound concentration 1000.0 nM
[17] = biological target: Serine/threonine-protein kinase 35 (Homo sapiens) (UniProt Q8TDR2); conditions: Compound concentration 1000.0 nM
[18] = biological target: SRSF protein kinase 3 (Homo sapiens) (UniProt Q9UPE1); conditions: Compound concentration 1000.0 nM
[19] = biological target: Mitogen-activated protein kinase kinase kinase 9 (Homo sapiens) (UniProt P80192); conditions: Compound concentration 1000.0 nM
[20] = biological target: Tyrosine-protein kinase Srms (Homo sapiens) (UniProt Q9H3Y6); conditions: Compound concentration 1000.0 nM
[21] = biological target: LIM domain kinase 1 (Homo sapiens) (UniProt P53667); conditions: Compound concentration 1000.0 nM
[22] = biological target: Dual specificity mitogen-activated protein kinase kinase 5 (Homo sapiens) (UniProt Q13163); conditions: Compound concentration 1000.0 nM
[23] = biological target: Serine/threonine-protein kinase N2 (Homo sapiens) (UniProt Q16513); conditions: Compound concentration 1000.0 nM
[24] = biological target: Dual specificity mitogen-activated protein kinase kinase 6 (Homo sapiens) (UniProt P52564); conditions: Compound concentration 1000.0 nM
[25] = biological target: Angiopoietin-1 receptor (Homo sapiens) (UniProt Q02763); conditions: Compound concentration 1000.0 nM
[26] = biological target: cGMP-dependent protein kinase 1 (Homo sapiens) (UniProt Q13976); conditions: Compound concentration 1000.0 nM
[27] = biological target: D(3) dopamine receptor (Homo sapiens) (UniProt P35462); conditions: Compound concentration 10.0 uM
[28] = tested on: Epidermal growth factor receptor (Homo sapiens), P00533 [UNDEFINED MUTATION]; conditions: Compound concentration 1000.0 nM
[29] = biological target: Serine/threonine-protein kinase D3 (Homo sapiens) (UniProt O94806); conditions: Compound concentration 1000.0 nM
[30] = biological target: Serine/threonine-protein kinase Chk1 (Homo sapiens) (UniProt O14757); conditions: Compound concentration 1000.0 nM
[31] = biological target: Protein kinase C epsilon type (Homo sapiens) (UniProt Q02156); conditions: Compound concentration 1000.0 nM
[32] = biological target: Serine/threonine-protein kinase TBK1 (Homo sapiens) (UniProt Q9UHD2); conditions: Compound concentration 1000.0 nM
[33] = biological target: Receptor tyrosine-protein kinase erbB-2 (Homo sapiens) (UniProt P04626); conditions: Compound concentration 1000.0 nM
[34] = tested on: Tyrosine-protein kinase ABL1 (Homo sapiens), P00519 [F317L]; conditions: Compound concentration 1000.0 nM
[35] = biological target: Serine/threonine-protein kinase PknB (Mycobacterium tuberculosis) (UniProt P9WI81); conditions: Compound concentration 1000.0 nM
[36] = biological target: Serine/threonine-protein kinase LATS1 (Homo sapiens) (UniProt O95835); conditions: Compound concentration 1000.0 nM
[37] = biological target: Ephrin type-B receptor 1 (Homo sapiens) (UniProt P54762); conditions: Compound concentration 1000.0 nM
[38] = biological target: Interleukin-1 receptor-associated kinase 3 (Homo sapiens) (UniProt Q9Y616); conditions: Compound concentration 1000.0 nM
[39] = biological target: Serine/threonine-protein kinase mTOR (Homo sapiens) (UniProt P42345); conditions: Compound concentration 1000.0 nM
[40] = biological target: Tyrosine-protein kinase ZAP-70 (Homo sapiens) (UniProt P43403); conditions: Compound concentration 1000.0 nM
[41] = biological target: Protein kinase C iota type (Homo sapiens) (UniProt P41743); conditions: Compound concentration 1000.0 nM
[42] = biological target: Serine/threonine-protein kinase RIO2 (Homo sapiens) (UniProt Q9BVS4); conditions: Compound concentration 1000.0 nM
[43] = biological target: Cyclin-dependent kinase 11A (Homo sapiens) (UniProt Q9UQ88); conditions: Compound concentration 1000.0 nM
[44] = biological target: Serine/threonine-protein kinase 38 (Homo sapiens) (UniProt Q15208); conditions: Compound concentration 1000.0 nM
[45] = biological target: Aurora kinase A (Homo sapiens) (UniProt O14965); conditions: Compound concentration 1000.0 nM
[46] = biological target: Phosphorylase b kinase gamma catalytic chain, skeletal muscle/heart isoform (Homo sapiens) (UniProt Q16816); conditions: Compound concentration 1000.0 nM

Sequence of Protein kinase C iota type (Homo sapiens) (P41743 whole entry): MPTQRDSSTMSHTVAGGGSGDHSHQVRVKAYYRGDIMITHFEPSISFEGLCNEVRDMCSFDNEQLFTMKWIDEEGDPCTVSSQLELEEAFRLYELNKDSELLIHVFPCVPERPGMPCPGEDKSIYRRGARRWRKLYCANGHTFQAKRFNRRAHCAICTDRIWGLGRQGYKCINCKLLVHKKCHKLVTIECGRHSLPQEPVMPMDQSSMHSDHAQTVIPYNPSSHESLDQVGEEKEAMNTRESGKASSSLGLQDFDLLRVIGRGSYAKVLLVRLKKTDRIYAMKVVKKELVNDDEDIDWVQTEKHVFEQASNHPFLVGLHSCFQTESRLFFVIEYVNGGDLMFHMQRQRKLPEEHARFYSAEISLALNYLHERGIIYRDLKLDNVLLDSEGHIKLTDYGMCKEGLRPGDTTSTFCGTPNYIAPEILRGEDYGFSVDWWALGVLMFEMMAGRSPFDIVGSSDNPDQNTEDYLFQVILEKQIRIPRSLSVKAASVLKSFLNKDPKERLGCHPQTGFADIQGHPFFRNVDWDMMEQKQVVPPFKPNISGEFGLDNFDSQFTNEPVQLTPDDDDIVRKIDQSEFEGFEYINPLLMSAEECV
Sequence of Mitogen-activated protein kinase kinase kinase 9 (Homo sapiens) (P80192 whole entry, looked up): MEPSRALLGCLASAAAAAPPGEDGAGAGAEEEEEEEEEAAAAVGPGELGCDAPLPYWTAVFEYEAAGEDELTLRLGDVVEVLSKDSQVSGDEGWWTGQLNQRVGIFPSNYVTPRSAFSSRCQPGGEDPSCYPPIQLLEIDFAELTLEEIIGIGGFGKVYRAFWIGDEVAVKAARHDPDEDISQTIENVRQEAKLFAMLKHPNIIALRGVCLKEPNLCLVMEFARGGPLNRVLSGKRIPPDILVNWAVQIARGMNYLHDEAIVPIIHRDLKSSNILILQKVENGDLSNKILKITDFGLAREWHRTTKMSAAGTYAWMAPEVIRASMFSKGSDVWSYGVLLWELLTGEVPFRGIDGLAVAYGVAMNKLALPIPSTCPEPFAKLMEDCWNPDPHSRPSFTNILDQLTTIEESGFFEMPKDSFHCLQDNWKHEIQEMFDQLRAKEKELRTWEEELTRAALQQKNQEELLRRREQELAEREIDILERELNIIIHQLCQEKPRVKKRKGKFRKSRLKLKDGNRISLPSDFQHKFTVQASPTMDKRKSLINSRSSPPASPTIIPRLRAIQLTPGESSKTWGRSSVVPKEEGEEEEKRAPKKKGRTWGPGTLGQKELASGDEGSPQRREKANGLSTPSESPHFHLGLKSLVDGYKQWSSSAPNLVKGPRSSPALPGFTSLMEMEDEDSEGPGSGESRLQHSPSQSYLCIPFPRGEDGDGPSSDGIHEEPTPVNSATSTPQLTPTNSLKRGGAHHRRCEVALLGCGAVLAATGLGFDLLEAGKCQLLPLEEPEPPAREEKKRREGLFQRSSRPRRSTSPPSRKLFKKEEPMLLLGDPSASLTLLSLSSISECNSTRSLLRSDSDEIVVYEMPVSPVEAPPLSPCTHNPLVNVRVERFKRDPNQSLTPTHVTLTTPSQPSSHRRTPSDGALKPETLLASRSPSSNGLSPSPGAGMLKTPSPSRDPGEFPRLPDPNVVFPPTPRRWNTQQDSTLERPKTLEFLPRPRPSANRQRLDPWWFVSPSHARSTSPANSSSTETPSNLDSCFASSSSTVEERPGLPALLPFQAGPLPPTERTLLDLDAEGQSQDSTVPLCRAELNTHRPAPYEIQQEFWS
Sequence of Dual specificity mitogen-activated protein kinase kinase 6 (Homo sapiens) (P52564 whole entry): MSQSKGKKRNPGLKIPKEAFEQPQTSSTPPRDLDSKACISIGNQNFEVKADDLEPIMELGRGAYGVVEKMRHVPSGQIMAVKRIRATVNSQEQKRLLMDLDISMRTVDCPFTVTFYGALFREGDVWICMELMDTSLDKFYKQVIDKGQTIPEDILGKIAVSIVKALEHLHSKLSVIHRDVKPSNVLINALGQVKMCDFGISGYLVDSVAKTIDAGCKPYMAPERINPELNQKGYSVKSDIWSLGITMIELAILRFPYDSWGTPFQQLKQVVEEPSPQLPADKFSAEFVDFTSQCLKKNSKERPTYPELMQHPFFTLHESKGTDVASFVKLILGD
Sequence of Angiopoietin-1 receptor (Homo sapiens) (Q02763 whole entry): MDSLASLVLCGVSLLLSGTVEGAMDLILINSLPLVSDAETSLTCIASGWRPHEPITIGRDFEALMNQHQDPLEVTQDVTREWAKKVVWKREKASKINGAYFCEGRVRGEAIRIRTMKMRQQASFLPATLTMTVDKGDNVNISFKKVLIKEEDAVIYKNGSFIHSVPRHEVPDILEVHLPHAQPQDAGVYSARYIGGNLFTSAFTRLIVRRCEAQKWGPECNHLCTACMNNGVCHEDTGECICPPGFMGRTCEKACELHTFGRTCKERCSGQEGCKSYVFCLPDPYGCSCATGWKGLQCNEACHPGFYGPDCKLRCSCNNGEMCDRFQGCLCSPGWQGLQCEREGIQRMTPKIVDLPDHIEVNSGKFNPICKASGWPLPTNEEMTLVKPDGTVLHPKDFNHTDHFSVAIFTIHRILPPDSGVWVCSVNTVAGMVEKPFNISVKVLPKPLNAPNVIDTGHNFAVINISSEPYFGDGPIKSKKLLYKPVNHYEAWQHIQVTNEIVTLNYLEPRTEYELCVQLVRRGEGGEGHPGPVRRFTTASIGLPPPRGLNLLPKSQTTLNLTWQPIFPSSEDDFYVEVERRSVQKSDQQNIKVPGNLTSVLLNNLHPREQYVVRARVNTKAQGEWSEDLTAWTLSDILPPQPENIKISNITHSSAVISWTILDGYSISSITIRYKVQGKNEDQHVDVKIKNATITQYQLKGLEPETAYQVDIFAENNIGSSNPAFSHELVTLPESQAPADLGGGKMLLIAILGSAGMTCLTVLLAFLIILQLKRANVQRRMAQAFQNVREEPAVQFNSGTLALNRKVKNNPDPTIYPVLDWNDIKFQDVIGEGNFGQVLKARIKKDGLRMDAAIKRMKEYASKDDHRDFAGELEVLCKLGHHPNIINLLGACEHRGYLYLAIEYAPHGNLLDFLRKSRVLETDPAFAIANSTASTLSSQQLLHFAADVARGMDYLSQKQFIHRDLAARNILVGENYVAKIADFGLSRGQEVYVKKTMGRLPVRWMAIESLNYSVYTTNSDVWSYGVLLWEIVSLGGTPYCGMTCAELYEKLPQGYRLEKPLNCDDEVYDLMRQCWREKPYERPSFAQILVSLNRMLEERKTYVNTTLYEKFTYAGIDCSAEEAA
Sequence of Ephrin type-B receptor 1 (Homo sapiens) (P54762 whole entry): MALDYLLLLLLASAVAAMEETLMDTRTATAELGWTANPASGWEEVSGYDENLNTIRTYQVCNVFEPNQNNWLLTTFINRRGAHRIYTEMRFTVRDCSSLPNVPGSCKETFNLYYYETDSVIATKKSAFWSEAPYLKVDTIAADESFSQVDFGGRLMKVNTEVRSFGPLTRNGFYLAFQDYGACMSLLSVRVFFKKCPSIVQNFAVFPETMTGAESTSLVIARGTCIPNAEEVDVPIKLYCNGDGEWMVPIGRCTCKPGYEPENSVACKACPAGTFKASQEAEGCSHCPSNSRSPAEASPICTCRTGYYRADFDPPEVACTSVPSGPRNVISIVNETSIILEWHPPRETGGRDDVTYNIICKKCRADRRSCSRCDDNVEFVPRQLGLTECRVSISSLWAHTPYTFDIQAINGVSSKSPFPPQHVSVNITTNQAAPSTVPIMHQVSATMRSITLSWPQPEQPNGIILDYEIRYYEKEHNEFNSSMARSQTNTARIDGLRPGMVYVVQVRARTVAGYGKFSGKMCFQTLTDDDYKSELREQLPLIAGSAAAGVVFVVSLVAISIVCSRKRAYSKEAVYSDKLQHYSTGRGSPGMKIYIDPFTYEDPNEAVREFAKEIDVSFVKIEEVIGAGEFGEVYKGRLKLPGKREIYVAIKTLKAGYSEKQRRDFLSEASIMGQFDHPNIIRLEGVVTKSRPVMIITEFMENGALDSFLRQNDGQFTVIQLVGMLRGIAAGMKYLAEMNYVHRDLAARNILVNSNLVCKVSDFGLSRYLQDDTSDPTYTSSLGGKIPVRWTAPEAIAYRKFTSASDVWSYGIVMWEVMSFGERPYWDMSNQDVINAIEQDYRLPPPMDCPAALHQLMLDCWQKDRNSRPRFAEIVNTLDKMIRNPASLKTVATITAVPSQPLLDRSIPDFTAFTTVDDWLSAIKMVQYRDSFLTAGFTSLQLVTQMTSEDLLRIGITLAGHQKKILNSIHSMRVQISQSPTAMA
Sequence of Cyclin-dependent kinase 11A (Homo sapiens) (Q9UQ88 whole entry): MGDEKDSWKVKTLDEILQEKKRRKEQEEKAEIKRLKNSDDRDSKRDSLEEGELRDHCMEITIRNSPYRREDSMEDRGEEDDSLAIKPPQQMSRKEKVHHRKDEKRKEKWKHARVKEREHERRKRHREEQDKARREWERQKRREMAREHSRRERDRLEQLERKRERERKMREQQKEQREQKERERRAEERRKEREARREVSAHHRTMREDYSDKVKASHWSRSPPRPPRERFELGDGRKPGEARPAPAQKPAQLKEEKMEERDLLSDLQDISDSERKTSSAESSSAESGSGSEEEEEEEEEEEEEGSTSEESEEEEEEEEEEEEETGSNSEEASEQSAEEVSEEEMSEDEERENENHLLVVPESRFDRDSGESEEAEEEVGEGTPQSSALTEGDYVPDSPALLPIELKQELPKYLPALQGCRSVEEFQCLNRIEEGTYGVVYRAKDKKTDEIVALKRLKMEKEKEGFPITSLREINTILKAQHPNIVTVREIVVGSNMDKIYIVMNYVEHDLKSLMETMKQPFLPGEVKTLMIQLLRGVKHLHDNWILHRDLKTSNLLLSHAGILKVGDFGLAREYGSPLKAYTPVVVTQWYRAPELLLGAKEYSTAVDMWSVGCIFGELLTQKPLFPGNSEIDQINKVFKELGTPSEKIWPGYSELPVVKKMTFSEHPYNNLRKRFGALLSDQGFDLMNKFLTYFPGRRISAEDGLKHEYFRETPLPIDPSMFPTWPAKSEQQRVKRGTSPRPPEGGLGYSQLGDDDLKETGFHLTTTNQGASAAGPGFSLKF

CO[C@@H](C)c1c(Nc2ccc([C@H](N(C)C(=O)C3CCS(=O)(=O)CC3)C(F)(F)F)cc2)cnc2cc(Cl)nn12 [NVS-MALT1]
inactive: residual activity [1] 100% | residual activity [2] 100% | residual activity [3] 90% | residual activity [4] 92% | residual activity [5] 87% | residual activity [6] 100% | residual activity [7] 88% | residual activity [8] 95% | residual activity [9] 72% | residual activity [10] 100% | residual activity [11] 95% | residual activity [12] 100% | residual activity [13] 92% | residual activity [14] 100% | residual activity [15] 100% | residual activity [16] 96% | residual activity [17] 80% | residual activity [18] 100% | residual activity [19] 100% | residual activity [20] 95% | residual activity [21] 100% | residual activity [22] 60% | residual activity [23] 100% | residual activity [24] 91% | residual activity [25] 84% | residual activity [26] 85% | inhibition [27] -4.43% | residual activity [28] 100% | residual activity [29] 85% | residual activity [30] 91% | residual activity [31] 100% | residual activity [32] 59% | residual activity [33] 59% | residual activity [34] 100% | residual activity [35] 87% | residual activity [36] 88% | residual activity [37] 86% | residual activity [38] 68% | residual activity [39] 100% | residual activity [40] 100% | residual activity [41] 72% | residual activity [42] 90% | residual activity [43] 93% | residual activity [44] 83% | residual activity [45] 100% | residual activity [46] 93%

CO[C@@H](C)c1c(Nc2ccc([C@@H](N(C)C(=O)C3CCS(=O)(=O)CC3)C(F)(F)F)cc2)cnc2cc(Cl)nn12 [NVS-MALT1-C]
inactive: residual activity [1] 94% | residual activity [2] 100% | residual activity [3] 100% | residual activity [4] 100% | residual activity [5] 84% | residual activity [6] 99% | residual activity [7] 87% | residual activity [8] 98% | residual activity [9] 75% | residual activity [10] 100% | residual activity [11] 96% | residual activity [12] 95% | residual activity [13] 76% | residual activity [14] 100% | residual activity [15] 87% | residual activity [16] 99% | residual activity [17] 90% | residual activity [18] 100% | residual activity [19] 81% | residual activity [20] 100% | residual activity [21] 92% | residual activity [22] 91% | residual activity [23] 88% | residual activity [24] 92% | residual activity [25] 90% | residual activity [26] 92% | inhibition [27] -5.92% | residual activity [28] 100% | residual activity [29] 93% | residual activity [30] 95% | residual activity [31] 94% | residual activity [32] 77% | residual activity [33] 70% | residual activity [34] 100% | residual activity [35] 100% | residual activity [36] 98% | residual activity [37] 92% | residual activity [38] 86% | residual activity [39] 100% | residual activity [40] 100% | residual activity [41] 76% | residual activity [42] 89% | residual activity [43] 100% | residual activity [44] 88% | residual activity [45] 100% | residual activity [46] 96%
